Assay results: patent US9278954B2, “Pyrrolidine derivatives, pharmaceutical compositions and uses thereof” (Boehringer Ingelheim International GmbH, priority 2013, dated 2016)

biological target: human ACC2 (Homo sapiens (Human), UniProt O00763); assay: ACC2 assay (spectrophotometric 384 well assay, NADH-linked kinetic method); assay type: biochemical; conditions: hACC2 construct lacking the 128 N-terminal amino acids; 25° C., 340 nm over 15 minutes
Protocol: Spectrophotometric 384 Well Assay
Malonyl CoA formation by acetyl CoA carboxylases is stoichometrically linked to the consumption of ATP. ACC2 activity is measured in a NADH-linked kinetic method measuring ADP generated during the ACC reaction using a coupled lactate dehydrogenase/pyruvate kinase reaction.
The protein is then expressed in insect cells using a baculoviral expression system. Protein purification is performed by anion exchange.
All compounds are dissolved in dimethyl sulfoxide (DMSO) to a concentration of 10 mM.
The enzymatic reaction is then started by addition of a mixture of NADH, acetyl
Coenzyme A (both […].) and ATP (500 uM f.c.). The decrease of the optical density (slope S) is then determined at 25° C. at a wavelength of 340 nm over 15 minutes in a spectrophotometric reader.
Each assay microtiter plate contains wells with vehicle instead of compound as controls for the non-inhibited enzyme (100% CTL; ‘HIGH’) and wells without acetyl-CoA as controls for non-specific NADH degradation (0% CTL; ‘LOW’).

human ACC2, sequence (O00763 129-2458): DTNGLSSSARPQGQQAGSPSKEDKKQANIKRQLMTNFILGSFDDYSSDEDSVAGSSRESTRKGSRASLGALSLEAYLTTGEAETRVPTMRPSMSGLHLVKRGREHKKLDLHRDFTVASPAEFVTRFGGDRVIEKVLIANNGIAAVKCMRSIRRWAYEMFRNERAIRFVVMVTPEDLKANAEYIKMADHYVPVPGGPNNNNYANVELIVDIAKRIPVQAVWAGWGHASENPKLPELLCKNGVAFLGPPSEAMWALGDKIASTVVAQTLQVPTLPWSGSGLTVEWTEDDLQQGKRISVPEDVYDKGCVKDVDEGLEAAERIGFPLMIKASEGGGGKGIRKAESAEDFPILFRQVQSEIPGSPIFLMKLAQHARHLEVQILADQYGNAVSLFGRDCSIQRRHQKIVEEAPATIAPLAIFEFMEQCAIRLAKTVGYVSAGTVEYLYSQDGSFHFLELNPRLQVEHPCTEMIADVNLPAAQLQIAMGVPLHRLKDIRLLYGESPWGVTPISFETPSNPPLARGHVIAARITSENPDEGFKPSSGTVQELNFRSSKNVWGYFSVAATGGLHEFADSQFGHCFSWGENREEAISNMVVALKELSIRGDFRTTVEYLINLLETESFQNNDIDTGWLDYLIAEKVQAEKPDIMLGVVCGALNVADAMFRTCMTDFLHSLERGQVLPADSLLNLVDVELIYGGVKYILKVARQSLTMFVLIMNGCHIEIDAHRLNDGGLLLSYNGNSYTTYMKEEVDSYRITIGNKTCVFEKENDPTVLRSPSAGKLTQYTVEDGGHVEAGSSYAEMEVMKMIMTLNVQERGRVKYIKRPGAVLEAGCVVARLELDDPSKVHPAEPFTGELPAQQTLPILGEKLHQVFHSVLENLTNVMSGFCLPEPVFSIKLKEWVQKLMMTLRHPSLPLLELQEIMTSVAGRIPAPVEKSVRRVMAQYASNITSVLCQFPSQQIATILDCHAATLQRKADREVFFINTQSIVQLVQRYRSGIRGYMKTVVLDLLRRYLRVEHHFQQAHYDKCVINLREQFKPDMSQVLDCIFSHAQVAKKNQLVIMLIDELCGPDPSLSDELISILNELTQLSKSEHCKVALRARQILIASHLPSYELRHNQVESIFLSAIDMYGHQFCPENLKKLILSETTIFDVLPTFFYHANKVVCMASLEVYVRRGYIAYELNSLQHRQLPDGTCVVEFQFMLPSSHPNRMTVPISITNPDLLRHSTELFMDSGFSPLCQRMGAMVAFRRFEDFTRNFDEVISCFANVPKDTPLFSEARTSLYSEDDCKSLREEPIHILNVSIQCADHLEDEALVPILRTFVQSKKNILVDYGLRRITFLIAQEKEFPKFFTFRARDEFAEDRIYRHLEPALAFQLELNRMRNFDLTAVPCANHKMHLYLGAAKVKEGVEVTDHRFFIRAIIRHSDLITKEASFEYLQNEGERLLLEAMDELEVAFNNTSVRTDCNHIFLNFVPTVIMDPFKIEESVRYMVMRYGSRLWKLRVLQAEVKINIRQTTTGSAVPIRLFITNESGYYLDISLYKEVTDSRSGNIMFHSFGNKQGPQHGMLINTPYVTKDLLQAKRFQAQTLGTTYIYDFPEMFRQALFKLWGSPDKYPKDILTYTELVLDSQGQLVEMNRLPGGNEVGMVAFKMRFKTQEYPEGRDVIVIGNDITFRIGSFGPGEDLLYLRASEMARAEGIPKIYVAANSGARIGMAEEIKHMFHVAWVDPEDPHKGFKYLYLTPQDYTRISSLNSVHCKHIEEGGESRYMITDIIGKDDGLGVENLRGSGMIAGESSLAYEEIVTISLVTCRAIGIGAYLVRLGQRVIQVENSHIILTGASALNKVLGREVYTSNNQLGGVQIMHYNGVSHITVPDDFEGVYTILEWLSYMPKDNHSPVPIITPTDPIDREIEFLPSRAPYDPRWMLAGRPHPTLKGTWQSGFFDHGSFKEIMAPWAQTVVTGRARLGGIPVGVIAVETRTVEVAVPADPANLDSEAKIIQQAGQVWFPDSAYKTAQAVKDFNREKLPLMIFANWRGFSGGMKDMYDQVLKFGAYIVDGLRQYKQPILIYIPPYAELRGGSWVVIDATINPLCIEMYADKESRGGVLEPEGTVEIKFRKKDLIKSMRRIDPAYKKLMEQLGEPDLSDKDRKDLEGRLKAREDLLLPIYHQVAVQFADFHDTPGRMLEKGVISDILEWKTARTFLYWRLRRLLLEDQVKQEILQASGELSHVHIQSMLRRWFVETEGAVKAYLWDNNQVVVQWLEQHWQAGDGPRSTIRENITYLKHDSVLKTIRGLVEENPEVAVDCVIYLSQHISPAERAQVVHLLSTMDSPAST

| IC50 [nM] | SMILES |
| --- | --- |
| 410 | CCNC(=O)C(C)c1ccc(O[C@@H]2CCN(c3cccc(C)c3)C2)cc1 (stereo partly drawn) [Example 7.16] |
| 429 | CCNC(=O)C(C)c1ccc(O[C@@H]2CCN(c3ccc(OCC4CCC4)cc3)C2)cc1 (stereo partly drawn) [Example 7.18] |
| 435 | CCNC(=O)C(C)c1ccc(O[C@@H]2CCN(c3cccc(Cl)c3)C2)cc1 (stereo partly drawn) [Example 7.19] |
| 445 | CCNC(=O)C(C)c1ccc(O[C@@H]2CCN(c3cccc(N(C)C)n3)C2)cc1 (stereo partly drawn) [Example 7.20] |
| 454 | CCNC(=O)C(C)c1ccc(O[C@@H]2CCN(c3ccc(OCCC4CC4)cc3)C2)cc1 (stereo partly drawn) [Example 7.21] |
| 455 | CCNC(=O)C(C)c1ccc(O[C@@H]2CCN(c3ccc(OC(C)C)cc3)C2)cc1 (stereo partly drawn) [Example 7.22] |
| 470 | CCNC(=O)C(C)c1ccc(O[C@@H]2CCN(c3ccc(OCC4CC4(F)F)nc3C#N)C2)cc1 (stereo partly drawn) [Example 7.23] |
| 473 | CCNC(=O)C(C)c1ccc(O[C@@H]2CCN(c3ccc(OCC4CC4)nc3)C2)cc1 (stereo partly drawn) [Example 7.24] |
| 500 | CCNC(=O)C(C)c1ccc(O[C@@H]2CCN(c3nc(C)ccc3F)C2)cc1 (stereo partly drawn) [Example 7.25] |
| 563 | CCNC(=O)C(C)c1ccc(O[C@@H]2CCN(c3ccc(F)c(C)n3)C2)cc1 (stereo partly drawn) [Example 7.27] |
| 583 | CCNC(=O)C(C)c1ccc(O[C@@H]2CCN(c3ccc(OC4CCCCC4)nc3)C2)cc1 (stereo partly drawn) [Example 7.28] |
| 600 | CCNC(=O)C(C)c1ccc(O[C@@H]2CCN(c3ccc(OC4CC4)cc3C)C2)cc1 (stereo partly drawn) [Example 7.29] |
| 630 | CCNC(=O)C(C)c1ccc(O[C@@H]2CCN(c3cccc(OC(C)CC)c3)C2)cc1 (stereo partly drawn) [Example 7.30] |
| 639 | CCNC(=O)C(C)c1ccc(O[C@@H]2CCN(c3ccc(F)c(Cl)c3)C2)cc1 (stereo partly drawn) [Example 7.31] |
| 821 | CCNC(=O)C(C)c1ccc(O[C@@H]2CCN(c3cccc(C)n3)C2)cc1 (stereo partly drawn) [Example 7.33] |
| 104 | CCNC(=O)C(C)c1ccc(O[C@@H]2CCN(c3ncc(OC4CCCC4)cc3F)C2)cc1 (stereo partly drawn) [Example 8.1, 2-(4-[1-(5-Cyclopentyloxy-3-fluoro-pyridin-2-yl)-(R)-pyrrolidin-3-yloxy]-phenyl)-N-ethyl-propionamide] |
| 353 | CCNC(=O)C(C)c1ccc(O[C@@H]2CCN(c3ccc(F)c(C(F)(F)F)n3)C2)cc1 (stereo partly drawn) [Example 8.2] |
| 543 | CCNC(=O)C(C)c1ccc(O[C@@H]2CCN(c3ncc(OC(C)C)cc3F)C2)cc1 (stereo partly drawn) [Example 8.3] |
| 910 | CCNC(=O)C(C)c1ccc(O[C@@H]2CCN(c3ccc(OC4CC4)cn3)C2)cc1 (stereo partly drawn) [Example 8.4] |
| 444 | CCNC(=O)C(C)c1ccc(O[C@@H]2CCN(c3ncc(OCC4CC4(F)F)cn3)C2)cc1 (stereo partly drawn) [Example 9.1, 2-(4-(1-[5-(2,2-Difluoro-cyclopropylmethoxy)-pyrimidin-2-yl]-(R)-pyrrolidin-3-yloxy)-phenyl)-N-ethyl-propionamide] |
| 975 | CCNC(=O)C(C)c1ccc(O[C@@H]2CCN(c3ccnc(C(F)(F)F)n3)C2)cc1 (stereo partly drawn) [Example 9.2] |
